Like-named read-outs stand apart in the source and are kept apart here. Some results are limits rather than exact numbers.

The values below come from patent US9969715B2, “Compounds useful for treating cancer” (ABIVAX, priority 2012, dated 2018).

For data set [1], the system named is MDA-MB231-luc-D3H2LN cells. The experiment in a line: Invasion of MDA-MB231-D3H2LN cells into collagen (procedure 1, 24 h drug incubation). In kind it is cell-based, human. The following applies: for anti-invasive activity (in words): first set of experiments, procedure 1; for Invasion av.: number of cells per valid field at 50 μm, fold inhibitory effect compared to 10 μM Y-27632: procedure 1, first set of experiments. On the procedure: It is to be noted that both Procedures 1 and 2 are invasion assays to test effect of drug compounds on invasion. They are both fully identical except for the time of incubation with the drug.
Here, invasion (into collagen) is the number of cells per valid field at 50 μm fold inhibitory effect compared to 10 μM Y-27632.
Standard Operating Procedure 1:
Said procedure is as described in example 15 except with respect to (i) the last step during day 1 “preparation of the invasion assay” and “treatment with the drugs” and days 2 and 3 which are detailed hereinafter and (ii) the fact that no concentration nor toxicity is determined at the end.
add each 33 μl/well of the 4× concentrated drug solutions in MEM+0.1% FBS to the corresponding wells in all three plates, according to the plate maps above
incubate 24 h at 37° C./5% CO2
The analysis as performed in day 5 in example 15 is performed exactly under the same conditions in day 3 in the framework of the present procedure 1.

The test system of data set [2] is MDA-MB231-luc-D3H2LN cells. In words: Toxicity assay under normal cell culture conditions (MTS), MDA cells. It is filed as cell-based, human. The following applies: MDA-MB231-luc-D3H2LN cells, MEM+10% FBS, 72 h incubation, MTS. A digest of the protocol:
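Under normal culture conditions (MEM with 10% FBS), MDA-MB231-luc-D3H2LN cells (2000/well) were exposed to compound concentration series for 72 h. Viability measured by MTS assay. Value is the concentration giving 50% toxicity.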

The next data set concerns human PBMC. In words: Toxicity assay under normal cell culture conditions (MTS), PBMC. It is filed as cell-based. The following applies: human PBMC, RPMI+10% FBS+IL-2, 72 h incubation, MTS. A digest of the protocol:
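Human PBMC (75000/well) in RPMI + 10% FBS + IL-2 were exposed to compounds for 72 h, with viability read by MTS. Concentration-response curves gave the concentration producing 50% toxicity.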

The test system of data set [3] is MDA-MB231-luc-D3H2LN cells. In words: Invasion of MDA-MB231-D3H2LN cells into collagen (example 15 = procedure 2, 48 h drug pre-incubation). It is filed as cell-based. A digest of the protocol:
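Cells embedded at the bottom of collagen gels were pre-treated 48 h with compound in 0.025% FBS, then stimulated with 5% FBS for 24 h at 37° C. Nuclei were imaged at 0, 25 and 50 µm to give mean invasion distance, with MTS viability also measured. Value is the concentration giving 50% of the effect of 10 µM Y-27632.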

Data set [4] relates to MDA-MB231-luc-D3H2LN cells. The experiment in a line: Viability (MTS) assay on the cells in collagen under invasion assay conditions. In kind it is cell-based, human. Conditions: loss of viability at the concentration giving 0.5 × effect of 10 μM Y-27632, invasion assay conditions. A digest of the protocol:
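Run on cells embedded in collagen after a further 24 h, on serum-starved cells and in parallel on cells in 10% FBS. MTS reagent 3–4 h at 37 °C, absorbance at 490 nm; background-corrected signals expressed as % of untreated control.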

The target in the next data set is T1, hERG channel (Homo sapiens, UniProt Q12809).
T1 construct: host or cells: HEK293
In words: hERG channel inhibition (electrophysiology, hERG-transfected HEK293 cells). It is filed as cell-based. On the procedure: Performed by Porsolt & Partners (Z. A. de Glatigné, 53940 Le Genest-Saint-Isle, France). Briefly, each 3 hERG-transfected HEK293 cells were superfused with the compounds at 1 and 10 μM, and the hERG channel current was measured by electrophysiology, as described by Crumb et al., J. Pharmacol. Exp. Ther. 2000.

T1 sequence (Q12809 whole entry): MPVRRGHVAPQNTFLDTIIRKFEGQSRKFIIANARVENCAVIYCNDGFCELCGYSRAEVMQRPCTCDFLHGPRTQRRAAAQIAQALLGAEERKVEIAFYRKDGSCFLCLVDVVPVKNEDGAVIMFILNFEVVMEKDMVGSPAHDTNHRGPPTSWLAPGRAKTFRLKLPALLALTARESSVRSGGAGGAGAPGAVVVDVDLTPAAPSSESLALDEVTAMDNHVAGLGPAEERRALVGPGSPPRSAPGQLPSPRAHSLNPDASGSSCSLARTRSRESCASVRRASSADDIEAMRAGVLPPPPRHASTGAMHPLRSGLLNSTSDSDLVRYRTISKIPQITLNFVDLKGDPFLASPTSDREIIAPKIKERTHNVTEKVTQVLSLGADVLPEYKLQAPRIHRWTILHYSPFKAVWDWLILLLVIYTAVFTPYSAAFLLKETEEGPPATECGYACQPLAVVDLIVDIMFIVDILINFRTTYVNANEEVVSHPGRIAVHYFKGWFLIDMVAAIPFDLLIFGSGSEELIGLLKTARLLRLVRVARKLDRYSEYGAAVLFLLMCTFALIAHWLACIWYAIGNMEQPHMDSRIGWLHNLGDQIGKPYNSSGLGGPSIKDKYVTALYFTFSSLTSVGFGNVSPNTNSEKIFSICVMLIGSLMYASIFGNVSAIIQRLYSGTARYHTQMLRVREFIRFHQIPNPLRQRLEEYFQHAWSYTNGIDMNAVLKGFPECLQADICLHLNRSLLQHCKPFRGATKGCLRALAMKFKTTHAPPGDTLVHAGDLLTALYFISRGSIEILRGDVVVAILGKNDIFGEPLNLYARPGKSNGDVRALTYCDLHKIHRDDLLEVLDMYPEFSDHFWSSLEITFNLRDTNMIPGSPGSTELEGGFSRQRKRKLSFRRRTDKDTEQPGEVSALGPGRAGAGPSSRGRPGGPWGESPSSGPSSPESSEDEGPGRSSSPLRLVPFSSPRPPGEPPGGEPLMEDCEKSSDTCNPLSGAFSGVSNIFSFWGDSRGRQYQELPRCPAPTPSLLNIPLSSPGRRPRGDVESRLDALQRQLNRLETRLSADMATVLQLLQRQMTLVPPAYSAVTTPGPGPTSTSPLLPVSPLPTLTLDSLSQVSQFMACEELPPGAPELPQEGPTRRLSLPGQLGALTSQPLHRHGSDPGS

In the case of `CCN(CC)CCCNC(=O)c1cccc(Nc2cccc(NC(=O)c3cccnc3)c2)c1` [FMMB46.1], in data set [1], the “anti-invasive activity (in words)” value was “no effect was observed” and the “Invasion av.: number of cells per valid field at 50 μm, fold inhibitory effect compared to 10 μM Y-27632” value turned out to be 0.02.

With `CCN(CC)CCCNC(=O)c1cccc(Nc2cccc(/C=C/c3ccncc3)c2)c1` [Compound C88, reference compound], the “MDA tox: 50% tox. at (μM) av” value in data set [2] is 10 µM. In the data set with human PBMC, the “PBMC tox.: 50% tox. at (μM) av” value was 10 µM. For the same molecule, the IC50 in data set [3] (Homo sapiens, procedure 2, second set of experiments, read-out: Invasion Av.: concentration of the compound necessary to reach 50% of the inhibition effect compared to 10 μM Y-27632) turned out to be 0.39 µM; in data set [3] (concentration giving 50% of the anti-invasive effect of 10 μM Y-27632, 48 h pre-incubation, 24 h with 5% FBS, read-out: MDA: Inhib. of invasion: 0.5 × eff. of 10 μM Y-27632 at (μM) av), 0.39 µM. Also, the “anti-invasive activity (in words)” value is reported as “anti-invasive activity is detected” in data set [3] (second set of experiments, procedure 2 (example 15)) and “anti-invasive activity was detected” in data set [1]. The “(+ MDA tox. under these cond.) % tox” value in data set [4] is below 10%. Besides, at hERG channel (1 μM compound), the “% hERG inhibition in transfected HEK (n = 3) at 1 μM av” value is listed as 55%. Moreover, the “% hERG inhibition in transfected HEK (n = 3) at 10 μM av” value at hERG channel (10 μM compound) is recorded as 92%. In data set [1], the “Invasion av.: number of cells per valid field at 50 μm, fold inhibitory effect compared to 10 μM Y-27632” value amounted to 1.
